Holding throughout (test): NCI anticancer screen, dose series, 48 h
The test system of assay [1] is UO-31 renal.
For assay [2], the system named is HOP-92 NSCLC.
Assay [3] concerns M14 melanoma.
The test system of assay [4] is NCI-H460 lung.
Assay [5] relates to UACC-62 melanoma.
The test system of assay [6] is DU-145 prostate.
For assay [7], the system named is RPMI-8226 leukemia.
The subject of assay [8] is HT29 colon.
For assay [9], the system named is PC-3 prostate.
The test system of assay [10] is COLO 205 colon.

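Tested at 5 concentrations; 48 h exposure; 96-well plates; endpoints linearly interpolated, else capped at highest concentration. GI50 = concentration required for 50% inhibition of growth. TGI: concentration producing complete growth inhibition.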

For `C[C@]12CC[C@H]3[C@@H](CC=C4C[C@@H](O)CC[C@@]43C)[C@@H]1C/C(=C\c1cccc(OCCCn3ccnc3)c1)[C@@H]2O`, the GI50 in assay [1] is 13 µM; in assay [2], 8.4 µM; in assay [3], 13.4 µM; in [4], 13.8 µM; in assay [5] it was 13.2 µM; in assay [6] it was 14.2 µM. Also, the GI50 was 5.32 µM in assay [7], 3.85 µM in assay [8], 9.48 µM in [9] and 8.33 µM in assay [10]. In addition, the TGI in [1] came to 28.3 µM; in assay [2] it was 25.7 µM; in [3], 35.7 µM; in [4] it was 31.8 µM; in [5], 29 µM; in assay [6], 28.3 µM. In addition, the TGI in assay [7] came to 25 µM; in [8] it was 18.1 µM; in [9] it was 56.6 µM; in [10], 27 µM.

As for `COc1cc(/C=C2\C[C@H]3[C@@H]4CC=C5C[C@@H](OC(C)=O)CC[C@]5(C)[C@H]4CC[C@]3(C)[C@H]2OC(C)=O)ccc1OCCCn1ccnc1`, the GI50 in assay [1] was 12.7 µM; in assay [2], 9.45 µM; in assay [3], 8.85 µM; in assay [4], 9.2 µM; in [5], 8.81 µM; in assay [6], 9.14 µM. Also, the GI50 was 0.515 µM in assay [7], 18.5 µM in assay [8], 11.5 µM in [9] and 11.6 µM in assay [10]. Further, the TGI in assay [1] was more than 34 µM; in [2] it was 20 µM; in [3], 16.6 µM; in assay [4] it was 22.9 µM; in assay [5] it was 16.1 µM; in assay [6] it was 18.7 µM. The TGI in assay [7] was 1.77 µM; in [8] it was more than 50 µM; in assay [9] it was 29.1 µM; in assay [10] it was 38.5 µM.

For the compound `CCC[C@H](Nc1nc(-c2ccc(NC(=O)NCC)c(OC)c2)ncc1C)c1cccnc1`, the GI50 in assay [1] is 0.277 µM; in [2] it was 0.236 µM; in assay [3], 0.0282 µM; in assay [4] it was 0.0357 µM; in [5], 0.0572 µM; in assay [6], 0.028 µM. Moreover, the GI50 in [7] is 0.037 µM; in assay [8], 0.0361 µM; in [9], 0.047 µM; in assay [10], 0.0282 µM. In addition, the TGI in assay [1] is 17.2 µM; in [2] it was 12.5 µM; in [3], 0.0824 µM; in [4], 13.3 µM; in assay [5], more than 48.5 µM; in assay [6], 0.0753 µM. In addition, the TGI is 15.1 µM in [7], 16.9 µM in assay [8], more than 55.6 µM in [9] and 0.0736 µM in assay [10].

`O=C(CSc1nc2sc3c(c2c(=O)n1-c1ccccc1)CCCCC3)N/N=C/c1ccc(F)cc1`: the GI50 in assay [1] was 3.77 µM; in assay [2], 2.47 µM; in [3], 5.72 µM; in assay [4], 1.12 µM; in [5], 11.4 µM; in assay [6], 1.24 µM. The GI50 in [7] is 29.5 µM; in [8], 2.4 µM; in [9], 4.91 µM; in assay [10], 1.58 µM. For the same compound, the TGI was more than 100 µM in assay [1]; 8.65 µM in [2]; more than 100 µM in [3]; 2.98 µM in [4]; 27.1 µM in assay [5]; 4.3 µM in assay [6]. Moreover, the TGI is more than 100 µM in assay [7], 7.04 µM in assay [8], 26.8 µM in assay [9] and 3.64 µM in assay [10].

For the compound `CC(=O)NC(Cc1c[nH]c2ccccc12)C(=O)O` (centres undefined), the TGI in [1], in assay [2], in [3], in assay [4], in [5] and in assay [6] was more than 100 µM in each case. In addition, the TGI in assay [7], in [8], in assay [9] and in assay [10] was more than 100 µM throughout.

In the case of `Nc1c(C(=O)Nc2cccc3ccccc23)sc2nc3c(cc12)CCCCC3`, the GI50 is 1.91 µM in [1]; 0.375 µM in [2]; 0.339 µM in assay [3]; 1.33 µM in [4]; 0.219 µM in assay [5]; 1.73 µM in assay [6]. The GI50 was 1.16 µM in [7], 1.05 µM in assay [8], 1.07 µM in assay [9] and 1.46 µM in assay [10]. For the same compound, the TGI in assay [1], in assay [2], in assay [3], in assay [4], in assay [5] and in assay [6] was more than 50 µM each time. Further, the TGI was more than 50 µM in [7], 4 µM in assay [8], more than 50 µM in [9] and 4.99 µM in [10].

Take `C[C@@H](Oc1cc(-c2cnn(C3CC4(CCNCC4)C3)c2)cnc1N)c1c(F)ccc(Cl)c1Cl`: the GI50 is 1.89 µM in [1]; 0.54 µM in [2]; 1.15 µM in assay [3]; 0.855 µM in assay [4]; 1.55 µM in assay [5]; 2.27 µM in [6]. Further, the GI50 in assay [7] was 1.63 µM; in assay [8] it was 0.446 µM; in assay [9], 0.758 µM; in assay [10], 0.293 µM. Further, the TGI in assay [1] is 4.28 µM; in assay [2], 3.13 µM; in [3], 2.61 µM; in assay [4], 2.84 µM; in [5], 3.16 µM; in [6] it was 11.5 µM. Besides, the TGI in [7] amounted to 4.95 µM; in assay [8], 2.17 µM; in assay [9] it was 5.79 µM; in [10] it was 0.864 µM.

As to `O=C1NC(=O)[C@H]2C3C=CC([C@@H]12)[C@@H]1C(=O)NC(=O)[C@H]31`, the TGI in [1], in [2], in [3], in assay [4], in [5] and in assay [6] was more than 100 µM in each case. In addition, the TGI in assay [7], in assay [9] and in assay [10] was more than 100 µM in each case.

For the origin of these results see PubChem BioAssay (NCI).
